Source: patent US7572765B2, “Conformationally constrained parathyroid hormone (PTH) analogs” (The General Hospital Corporation, priority 2001, dated 2009)

Legend:
[1] = Circular dichroism spectroscopy (helical content); format: physicochemical
Protocol: Circular Dichroism. Circular Dichroism spectra were recorded on a Jasco model 710 spectropolarimeter; peptides were analyzed at a concentration of20 μM in 50 mM sodium phosphate buffer pH 7.4, or the same buffer containing 2,2,2-trifluoroethanol at 20% (v/v). Spectroscopic scans were preformed at 20° C. and at wavelengths between […], with data recored at each 1 nM interval. The spectral bandwidth was 1.5 nM and 8 scans were accumulated and averaged for each sample. At each wavelength, the mean residue elipticity [θ×100/l×C×n); where θ is the raw elipticity value (in dimensions of millidegree), l is the sample path length, C=is the molar peptide concentration, and n is the number of residues in the peptide (Bowen, W. P., and Jerman, J. C., Trends in Pharmacol. Sci. 16: 413-417 (1995)). The helical content of each peptide was estimated by dividing [θ] observed at 222 nM for that peptide by −28,100, which is the reported [θ]222obs for a model helical decapeptide (Bowen, W. P., and Jerman, J. C., Trends in Pharmacol. Sci. 16: 413-417 (1995)).
Circular dichroism (CD) spectroscopy was used to analyze the potential effects that the Aib substitutions had on peptide secondary structure when the peptides were free in solution. Samples were analyzed in both aqueous phosphate buffer and in phosphate buffer containing 2,2,2-trifloroethanol, an organic solvent which promotes helical structure in oligopeptides, including PTH peptide fragments (Pellegrini, M., et al., J. Biol. Chem. 273:10420-10427 (1998); Gronwald, W., et al., Biol. Chem. Hoppe Seyler 377:175-186 (1996); Barden, J. A., and Kemp, B. E., Biochemistry 32:7126-7132 (1993)). In phosphate buffer, the helical content of each peptide, estimated from the elipticity observed at 222 nM, was small (≦16%); however, [Aib^1,3,M]PTH(1-14) contained nearly twice as much helix as did [M]PTH(1-14) (16% and 8.1% respectively), as did [Aib^1,3,M]PTH(1-1l), as compared to […] (13% and 7.5% respectively, Table 4). […] The higher helical contents of these two peptides were evident not only from the negative elipticities at […] and 222 nM, but also from the positive elipticities at 192 nM (FIG. 6).

[2] = target: T1, human P1R (Homo sapiens, UniProt Q03431); details: HKRK-B28 cells; previously shown (Shimizu et al., Endocrinology 2001); read-out: cAMP EC50; cited from earlier work
T1 construct: expressed in transfected cells; host or cells: HKRK-B28 (porcine kidney LLC-PK1, stably transfected)
T1 sequence (Q03431 27-593): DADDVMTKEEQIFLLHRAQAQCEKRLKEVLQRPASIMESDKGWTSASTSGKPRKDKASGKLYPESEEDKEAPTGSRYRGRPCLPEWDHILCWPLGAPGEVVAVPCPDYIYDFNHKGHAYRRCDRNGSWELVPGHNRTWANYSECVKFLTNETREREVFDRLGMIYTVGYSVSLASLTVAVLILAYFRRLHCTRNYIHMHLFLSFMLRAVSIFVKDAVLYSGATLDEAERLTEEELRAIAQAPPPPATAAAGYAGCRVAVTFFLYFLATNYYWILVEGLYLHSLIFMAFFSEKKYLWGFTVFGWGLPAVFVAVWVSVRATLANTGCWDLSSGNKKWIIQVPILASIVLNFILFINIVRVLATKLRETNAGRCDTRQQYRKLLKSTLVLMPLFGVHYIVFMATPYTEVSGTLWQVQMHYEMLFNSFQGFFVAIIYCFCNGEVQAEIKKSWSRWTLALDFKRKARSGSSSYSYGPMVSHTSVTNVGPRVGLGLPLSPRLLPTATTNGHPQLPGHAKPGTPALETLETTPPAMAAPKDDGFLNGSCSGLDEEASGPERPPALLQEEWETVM

[Ala^3,Gln^10,Har^11]PTH(1-11)amide [[M]PTH(1-11)]
[0]222obs × 10^−3, Phos. ([1]; 20 μM peptide, 50 mM phosphate buffer pH 7.4): −2.1
[0]222obs × 10^−3, Phos + TFE ([1]; 20 μM peptide, 50 mM phosphate buffer with trifluoroethanol (20%)): −9.9
helical residues (%), Phos + TFE ([1]; 50 mM phosphate buffer with trifluoroethanol (20%), from elipticity at 222 nM): 35%
helical residues (%), Phos. ([1]; 50 mM phosphate buffer, from elipticity at 222 nM): 7.5%
EC50 [2]: 3000 nM
